Common to all, as to format: biochemical
In experiment [1] the target is 320 wild-type protein kinases (Homo sapiens, UniProt Q16539). Particulars: p38-alpha, singlicate. An excerpt:
(§1) Table S4. Profiling of two compounds at two concentrations against 320 wild-type protein kinases; singlicate measurement; Residual activities (% of control).

Experiment [2] has as its target 320 wild-type protein kinases (Homo sapiens, UniProt Q9P289). To be noted: singlicate.
Text: as §1

The target of experiment [3] is T1, 320 wild-type protein kinases (Homo sapiens, UniProt O14965).
T1 sequence (O14965 1-403): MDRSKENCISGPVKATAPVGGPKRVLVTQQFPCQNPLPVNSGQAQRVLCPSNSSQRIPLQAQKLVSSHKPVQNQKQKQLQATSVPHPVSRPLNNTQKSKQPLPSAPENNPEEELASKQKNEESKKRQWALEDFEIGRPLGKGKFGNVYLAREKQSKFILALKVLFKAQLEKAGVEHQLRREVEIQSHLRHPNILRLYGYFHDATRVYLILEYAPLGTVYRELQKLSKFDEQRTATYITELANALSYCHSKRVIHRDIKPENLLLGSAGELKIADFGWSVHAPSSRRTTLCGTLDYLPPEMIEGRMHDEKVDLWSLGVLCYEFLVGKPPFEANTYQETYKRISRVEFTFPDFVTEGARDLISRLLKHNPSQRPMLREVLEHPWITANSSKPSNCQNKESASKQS
To be noted: Aurora-A, singlicate.
Text: as §1

For experiment [4], the target named is 320 wild-type protein kinases (Homo sapiens, UniProt Q9H2X6). Particulars: singlicate.
Text: as §1

Experiment [5] concerns the target 320 wild-type protein kinases (Homo sapiens, UniProt O75716). Particulars: kinase TSF1, singlicate.
Text: as §1

Experiment [6] deals with 320 wild-type protein kinases (Homo sapiens, UniProt P51617). Particulars: singlicate.
Text: as §1

For experiment [7], the target named is 320 wild-type protein kinases (Homo sapiens, UniProt P42685). To be noted: FRK, singlicate.
Text: as §1

Experiment [8] concerns the target T2, 320 wild-type protein kinases (Homo sapiens, UniProt O15146).
T2 sequence (O15146 24-869): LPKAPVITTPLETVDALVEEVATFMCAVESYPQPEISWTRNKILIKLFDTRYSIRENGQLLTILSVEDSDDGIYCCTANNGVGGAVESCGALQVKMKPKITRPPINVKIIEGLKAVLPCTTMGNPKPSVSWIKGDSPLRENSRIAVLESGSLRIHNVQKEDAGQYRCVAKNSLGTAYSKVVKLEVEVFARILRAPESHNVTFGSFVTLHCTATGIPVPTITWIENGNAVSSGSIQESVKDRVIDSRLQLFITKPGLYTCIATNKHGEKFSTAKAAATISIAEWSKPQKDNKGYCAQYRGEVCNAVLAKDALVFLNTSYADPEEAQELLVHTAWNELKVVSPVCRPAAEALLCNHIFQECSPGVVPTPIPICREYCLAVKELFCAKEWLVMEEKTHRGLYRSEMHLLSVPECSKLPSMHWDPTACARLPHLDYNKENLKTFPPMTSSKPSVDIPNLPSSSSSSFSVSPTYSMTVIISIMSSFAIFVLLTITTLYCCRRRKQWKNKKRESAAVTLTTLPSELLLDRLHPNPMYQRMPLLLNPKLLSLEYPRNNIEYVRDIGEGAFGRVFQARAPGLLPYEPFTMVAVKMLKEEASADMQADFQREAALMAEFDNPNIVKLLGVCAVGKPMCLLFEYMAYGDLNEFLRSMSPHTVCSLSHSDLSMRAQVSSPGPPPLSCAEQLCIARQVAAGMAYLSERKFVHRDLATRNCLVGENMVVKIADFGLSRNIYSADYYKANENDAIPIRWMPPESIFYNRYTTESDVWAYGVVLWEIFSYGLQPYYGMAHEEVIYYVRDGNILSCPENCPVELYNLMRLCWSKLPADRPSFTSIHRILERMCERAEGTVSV
Particulars: MUSK, singlicate.
Text: as §1

Experiment [9] concerns the target T3, 320 wild-type protein kinases (Homo sapiens, UniProt P51956).
T3 sequence (P51956 1-506): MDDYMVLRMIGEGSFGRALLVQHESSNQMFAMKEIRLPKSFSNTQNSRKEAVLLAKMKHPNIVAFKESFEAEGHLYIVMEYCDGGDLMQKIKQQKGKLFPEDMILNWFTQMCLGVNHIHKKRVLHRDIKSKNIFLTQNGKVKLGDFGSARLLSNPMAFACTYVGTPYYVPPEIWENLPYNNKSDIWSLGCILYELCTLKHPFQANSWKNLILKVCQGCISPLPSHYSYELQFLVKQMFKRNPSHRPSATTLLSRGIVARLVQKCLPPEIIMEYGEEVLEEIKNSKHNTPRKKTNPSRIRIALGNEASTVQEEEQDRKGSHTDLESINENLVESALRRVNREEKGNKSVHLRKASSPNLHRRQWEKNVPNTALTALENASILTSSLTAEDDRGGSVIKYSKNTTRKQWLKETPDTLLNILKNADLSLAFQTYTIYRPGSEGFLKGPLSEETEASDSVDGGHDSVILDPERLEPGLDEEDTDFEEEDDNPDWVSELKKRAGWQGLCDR
Particulars: singlicate.
Text: as §1

In experiment [10] the target is 320 wild-type protein kinases (Homo sapiens, UniProt P08581). To be noted: MET, singlicate.
Text: as §1

Each structure is given as a SMILES string. Read-outs that look alike come from different tables or passages of the source.

320 wild-type protein kinases (Homo sapiens, UniProt Q9H2X6), sequence (Q9H2X6 whole entry): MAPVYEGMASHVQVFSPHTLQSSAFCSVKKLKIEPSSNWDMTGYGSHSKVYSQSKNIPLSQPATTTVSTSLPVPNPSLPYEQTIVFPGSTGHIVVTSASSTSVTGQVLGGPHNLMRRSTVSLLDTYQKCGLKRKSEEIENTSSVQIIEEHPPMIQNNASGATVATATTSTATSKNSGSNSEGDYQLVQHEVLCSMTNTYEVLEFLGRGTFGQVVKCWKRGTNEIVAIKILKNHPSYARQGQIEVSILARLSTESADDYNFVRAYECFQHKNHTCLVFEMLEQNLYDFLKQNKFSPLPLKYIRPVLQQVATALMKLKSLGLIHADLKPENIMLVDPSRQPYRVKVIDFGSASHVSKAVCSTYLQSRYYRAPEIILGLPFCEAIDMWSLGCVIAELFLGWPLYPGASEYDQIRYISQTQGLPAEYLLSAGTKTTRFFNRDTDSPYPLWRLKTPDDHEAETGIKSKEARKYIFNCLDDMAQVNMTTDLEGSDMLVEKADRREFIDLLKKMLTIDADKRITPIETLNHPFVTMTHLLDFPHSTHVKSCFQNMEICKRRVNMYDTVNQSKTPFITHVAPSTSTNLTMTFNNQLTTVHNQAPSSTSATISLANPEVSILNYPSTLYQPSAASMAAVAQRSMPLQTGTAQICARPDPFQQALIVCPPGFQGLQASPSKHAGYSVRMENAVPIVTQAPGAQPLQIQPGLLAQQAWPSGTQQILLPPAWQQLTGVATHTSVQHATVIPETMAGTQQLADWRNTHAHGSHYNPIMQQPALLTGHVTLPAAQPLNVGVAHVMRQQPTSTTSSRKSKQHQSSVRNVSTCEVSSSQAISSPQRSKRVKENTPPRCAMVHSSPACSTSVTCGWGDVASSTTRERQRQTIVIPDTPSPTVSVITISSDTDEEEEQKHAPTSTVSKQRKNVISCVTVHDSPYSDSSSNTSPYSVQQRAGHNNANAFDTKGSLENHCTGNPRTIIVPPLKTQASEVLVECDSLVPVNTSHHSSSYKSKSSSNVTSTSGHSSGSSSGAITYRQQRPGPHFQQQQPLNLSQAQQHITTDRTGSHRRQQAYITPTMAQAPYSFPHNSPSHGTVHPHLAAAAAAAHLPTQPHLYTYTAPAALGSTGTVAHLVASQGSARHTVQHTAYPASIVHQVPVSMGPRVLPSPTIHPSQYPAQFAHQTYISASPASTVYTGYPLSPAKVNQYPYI
320 wild-type protein kinases (Homo sapiens, UniProt P51617), sequence (P51617 whole entry): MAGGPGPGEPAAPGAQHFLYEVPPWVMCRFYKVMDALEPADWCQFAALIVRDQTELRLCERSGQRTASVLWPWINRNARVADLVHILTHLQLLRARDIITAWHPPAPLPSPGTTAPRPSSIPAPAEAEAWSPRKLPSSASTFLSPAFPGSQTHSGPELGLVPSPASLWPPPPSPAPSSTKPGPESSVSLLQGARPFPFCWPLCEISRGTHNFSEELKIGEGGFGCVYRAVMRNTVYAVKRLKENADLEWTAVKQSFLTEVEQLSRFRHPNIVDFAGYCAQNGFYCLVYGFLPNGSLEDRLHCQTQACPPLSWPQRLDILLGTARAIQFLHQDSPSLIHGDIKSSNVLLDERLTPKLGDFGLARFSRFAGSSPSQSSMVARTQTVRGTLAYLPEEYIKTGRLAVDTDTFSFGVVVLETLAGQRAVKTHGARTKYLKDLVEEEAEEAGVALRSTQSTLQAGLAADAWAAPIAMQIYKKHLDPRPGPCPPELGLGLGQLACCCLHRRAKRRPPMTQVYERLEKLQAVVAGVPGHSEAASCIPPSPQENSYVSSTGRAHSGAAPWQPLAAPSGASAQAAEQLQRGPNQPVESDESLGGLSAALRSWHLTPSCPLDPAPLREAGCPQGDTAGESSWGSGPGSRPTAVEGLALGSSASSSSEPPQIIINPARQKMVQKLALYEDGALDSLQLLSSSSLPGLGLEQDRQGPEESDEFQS
320 wild-type protein kinases (Homo sapiens, UniProt P08581), sequence (P08581 25-1390): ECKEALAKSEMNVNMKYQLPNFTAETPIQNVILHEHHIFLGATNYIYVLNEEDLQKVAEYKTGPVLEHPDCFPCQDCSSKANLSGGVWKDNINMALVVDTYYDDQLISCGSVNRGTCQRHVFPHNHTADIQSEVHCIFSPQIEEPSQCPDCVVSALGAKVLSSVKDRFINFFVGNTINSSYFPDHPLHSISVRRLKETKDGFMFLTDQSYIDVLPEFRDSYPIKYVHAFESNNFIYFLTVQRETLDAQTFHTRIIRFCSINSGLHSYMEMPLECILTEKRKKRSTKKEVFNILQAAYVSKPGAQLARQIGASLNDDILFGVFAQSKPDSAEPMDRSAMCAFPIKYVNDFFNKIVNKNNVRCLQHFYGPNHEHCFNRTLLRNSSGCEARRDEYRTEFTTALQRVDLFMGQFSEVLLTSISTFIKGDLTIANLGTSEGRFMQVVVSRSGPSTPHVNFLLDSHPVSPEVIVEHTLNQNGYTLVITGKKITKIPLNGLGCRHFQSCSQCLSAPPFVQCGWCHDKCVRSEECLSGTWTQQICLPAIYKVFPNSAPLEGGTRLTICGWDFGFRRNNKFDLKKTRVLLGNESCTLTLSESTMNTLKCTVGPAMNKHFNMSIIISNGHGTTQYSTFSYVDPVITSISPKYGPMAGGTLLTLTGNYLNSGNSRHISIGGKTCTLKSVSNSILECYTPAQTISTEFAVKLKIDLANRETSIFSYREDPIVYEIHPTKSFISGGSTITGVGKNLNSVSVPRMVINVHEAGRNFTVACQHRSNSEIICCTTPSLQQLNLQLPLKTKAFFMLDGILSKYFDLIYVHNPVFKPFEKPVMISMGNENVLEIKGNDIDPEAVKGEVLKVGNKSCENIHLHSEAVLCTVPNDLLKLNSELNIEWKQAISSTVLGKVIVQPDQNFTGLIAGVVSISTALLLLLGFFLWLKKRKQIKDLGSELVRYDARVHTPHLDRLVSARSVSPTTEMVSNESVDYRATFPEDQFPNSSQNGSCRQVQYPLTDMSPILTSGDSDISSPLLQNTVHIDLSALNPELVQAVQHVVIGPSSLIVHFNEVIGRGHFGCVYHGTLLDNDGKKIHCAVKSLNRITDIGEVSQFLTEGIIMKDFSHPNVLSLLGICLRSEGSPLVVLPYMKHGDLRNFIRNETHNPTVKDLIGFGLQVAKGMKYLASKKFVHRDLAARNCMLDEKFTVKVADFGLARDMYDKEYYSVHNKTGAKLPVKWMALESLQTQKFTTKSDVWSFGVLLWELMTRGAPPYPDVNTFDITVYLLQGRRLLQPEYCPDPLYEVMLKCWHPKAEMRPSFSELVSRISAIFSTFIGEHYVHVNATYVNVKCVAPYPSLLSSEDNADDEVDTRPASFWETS
320 wild-type protein kinases (Homo sapiens, UniProt Q9P289), sequence (Q9P289 whole entry): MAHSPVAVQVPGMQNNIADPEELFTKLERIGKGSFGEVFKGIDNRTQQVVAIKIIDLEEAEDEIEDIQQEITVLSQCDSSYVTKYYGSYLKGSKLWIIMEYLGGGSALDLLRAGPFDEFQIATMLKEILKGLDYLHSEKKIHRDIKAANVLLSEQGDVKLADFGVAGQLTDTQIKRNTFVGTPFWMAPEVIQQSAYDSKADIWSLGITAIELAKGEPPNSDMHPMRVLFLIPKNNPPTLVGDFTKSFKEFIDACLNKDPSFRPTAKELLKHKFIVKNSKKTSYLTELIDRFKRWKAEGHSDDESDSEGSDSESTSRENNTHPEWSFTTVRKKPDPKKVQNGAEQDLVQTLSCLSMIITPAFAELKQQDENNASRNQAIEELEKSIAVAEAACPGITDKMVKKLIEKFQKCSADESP
320 wild-type protein kinases (Homo sapiens, UniProt Q16539), sequence (Q16539 whole entry): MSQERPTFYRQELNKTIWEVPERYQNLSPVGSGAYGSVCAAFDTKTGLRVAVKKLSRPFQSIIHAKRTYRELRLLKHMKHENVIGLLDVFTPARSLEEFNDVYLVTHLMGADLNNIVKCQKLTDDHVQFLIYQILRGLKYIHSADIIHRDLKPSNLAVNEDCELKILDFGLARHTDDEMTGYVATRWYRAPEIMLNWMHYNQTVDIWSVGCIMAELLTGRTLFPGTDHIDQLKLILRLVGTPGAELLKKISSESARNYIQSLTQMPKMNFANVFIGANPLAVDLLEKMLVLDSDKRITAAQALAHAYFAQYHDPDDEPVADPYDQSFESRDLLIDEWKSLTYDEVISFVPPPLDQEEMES
320 wild-type protein kinases (Homo sapiens, UniProt O75716), sequence (O75716 whole entry): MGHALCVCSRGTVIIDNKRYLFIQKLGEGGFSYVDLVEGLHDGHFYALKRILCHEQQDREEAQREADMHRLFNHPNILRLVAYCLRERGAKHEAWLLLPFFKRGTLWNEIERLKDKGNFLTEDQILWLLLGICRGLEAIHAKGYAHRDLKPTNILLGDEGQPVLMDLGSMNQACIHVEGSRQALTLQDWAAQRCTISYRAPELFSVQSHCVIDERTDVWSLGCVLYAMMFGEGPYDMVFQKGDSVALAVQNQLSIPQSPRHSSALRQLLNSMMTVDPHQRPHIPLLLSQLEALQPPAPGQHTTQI
320 wild-type protein kinases (Homo sapiens, UniProt P42685), sequence (P42685 whole entry): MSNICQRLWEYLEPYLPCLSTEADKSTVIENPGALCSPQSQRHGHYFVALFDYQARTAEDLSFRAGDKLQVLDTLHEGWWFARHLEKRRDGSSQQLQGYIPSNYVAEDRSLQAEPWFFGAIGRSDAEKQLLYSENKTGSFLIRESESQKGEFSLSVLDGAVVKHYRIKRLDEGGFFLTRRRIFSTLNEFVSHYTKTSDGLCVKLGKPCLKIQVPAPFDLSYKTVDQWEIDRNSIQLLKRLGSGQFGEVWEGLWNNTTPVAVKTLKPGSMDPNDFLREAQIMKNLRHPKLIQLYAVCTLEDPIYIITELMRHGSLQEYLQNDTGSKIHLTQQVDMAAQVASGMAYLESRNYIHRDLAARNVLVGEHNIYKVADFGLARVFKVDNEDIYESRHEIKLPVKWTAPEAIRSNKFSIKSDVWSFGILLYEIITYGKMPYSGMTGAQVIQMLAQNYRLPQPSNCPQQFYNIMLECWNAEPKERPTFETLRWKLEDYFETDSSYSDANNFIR

For `C#Cc1cc(Nc2ncnc3cc(I)ccc23)ccc1Cl` [Compound 41], the Residual activity in [1] (1.0E-06 M) is listed as 71 % of control; in [1] (1.0E-07 M) it was 103 % of control; in experiment [2] (MST4, 1.0E-06 M), 89 % of control; in experiment [2] (MST4, 1.0E-07 M), 101 % of control; in experiment [3] (1.0E-06 M), 81 % of control; in experiment [3] (1.0E-07 M), 95 % of control. Besides, the Residual activity in experiment [4] (HIPK2, 1.0E-06 M) is given as 101 % of control; in experiment [4] (HIPK2, 1.0E-07 M), 97 % of control; in [6] (IRAK1, 1.0E-06 M) it was 103 % of control; in experiment [6] (IRAK1, 1.0E-07 M) it was 109 % of control; in [7] (1.0E-06 M), 106 % of control; in experiment [7] (1.0E-07 M) it was 93 % of control. Further, the Residual activity is 96 % of control in [8] (1.0E-06 M); 94 % of control in [8] (1.0E-07 M); 103 % of control in experiment [9] (NEK3, 1.0E-06 M); 110 % of control in experiment [9] (NEK3, 1.0E-07 M); 89 % of control in [10] (1.0E-06 M); 93 % of control in experiment [10] (1.0E-07 M). The “Residual activity, TSF1” value in experiment [5] (assay conc. 1.0E-06 M) is 94 % of control; in experiment [5] (assay conc. 1.0E-07 M), 93 % of control.
For `C#Cc1cc(Nc2ncnc3cc(OC)c(OC)cc23)ccc1Cl` [Compound 45], the Residual activity was 56 % of control in [1] (1.0E-06 M); 96 % of control in [1] (1.0E-07 M); 97 % of control in experiment [2] (MST4, 1.0E-06 M); 92 % of control in experiment [2] (MST4, 1.0E-07 M); 80 % of control in experiment [3] (1.0E-06 M); 99 % of control in [3] (1.0E-07 M). Also, the Residual activity in experiment [4] (HIPK2, 1.0E-06 M) was 94 % of control; in experiment [4] (HIPK2, 1.0E-07 M) it was 98 % of control; in experiment [6] (IRAK1, 1.0E-06 M) it was 105 % of control; in experiment [6] (IRAK1, 1.0E-07 M), 109 % of control; in [7] (1.0E-06 M), 74 % of control; in experiment [7] (1.0E-07 M), 96 % of control. Moreover, the Residual activity is given as 87 % of control in [8] (1.0E-06 M); 94 % of control in experiment [8] (1.0E-07 M); 113 % of control in experiment [9] (NEK3, 1.0E-06 M); 101 % of control in experiment [9] (NEK3, 1.0E-07 M); 70 % of control in experiment [10] (1.0E-06 M); 99 % of control in [10] (1.0E-07 M). Further, the “Residual activity, TSF1” value is given as 104 % of control in [5] (assay conc. 1.0E-06 M) and 95 % of control in [5] (assay conc. 1.0E-07 M).
